Entries after “also recorded” stand apart in the source; their conditions may differ. Structures can show the parent of a compound that is named as a salt.
Tests used:
[1] = system: total Akt levels; assay: Pharmacodynamic biomarker analysis of total Akt and PI3K pathway proteins in tumor lysates by reverse phase protein microarray (RPMA); format: in vivo
Description: Multiple proteins in the P13K pathway were assessed by reverse phase protein microarray (RPMA) in tumor lysates. Akt levels decreased in all models except MDA-MB-231 (wild type for BRCA1 and 2 and PTEN) following single agent and combination treatments. This effect is specific for Akt as no changes in total PI3K, Erk, or Src were observed. Phosphorylated Akt (S473 & T308) decreased by E7389 and combination treatment at 48 hours in MDA-MB-468 tumors. […] No significant effects of treatment were observed on phosphorylated Src (Y527) levels in any tumor models.

[2] = system: BR1282; assay: Antitumor effect in patient-derived xenograft (PDx) BR1282 of triple negative breast cancer in athymic mice; format: in vivo, human
[3] = system: MDA-MB-468 human breast cancer xenografts; assay: Antitumor activity against subcutaneous MDA-MB-468 human breast cancer xenografts in athymic mice; format: in vivo
Description: MDA-MB-468 human triple negative breast cancer cells are wild type for BRCA1 and 2 and PTEN null. Cells were maintained in monolayer cultures in RPMI-1640 growth medium supplemented with 10% fetal bovine serum at 37° C. in a 5% CO2 humidified incubator. On the day of inoculation, cells were harvested by trypsinization, washed, and resuspended in ice-cold PBS. Female immunodeficient athymic mice were inoculated subcutaneously near the right axillary area with MDA-MB-468 cells (5×10^6) in a 1:1 ratio (50 μL each) with matrigel in a volume of 0.1 mL in phosphate buffered saline using a 26-gauge needle. A total of 60 mice, approximately 8 weeks old were implanted with MDA-MB-468 cells.
E7449 and E7389 were evaluated as single agents and in combination for antitumor activity against MDA-MB-468 human breast cancer xenografts in athymic mice. The experiment consisted of a vehicle control group, an E7449 single agent group, two groups treated with single agent E7389 and 2 combination drug-treated groups (Table 4). Sixty mice were inoculated with MDA-MB-468 cells. On day 7 following implantation, tumor volumes were measured and mice were randomized into the 6 treatment groups based on tumor volume (average of 180 mm^3). Following randomization drug treatment was initiated. Each group was composed of 6 mice for a total of 36 mice on the first day of treatment. E7449 was formulated in 0.5% methyl cellulose and orally administered daily at 100 mg/kg based on body weight at 0.1 mL per 10 g. E7449 was administered once daily for 28 days (starting on Day 7) as a single agent or in combination. E7389 was formulated in saline and was intravenously administered once every 4 days, 3 times (Day 7, 11, and 15) at a dosage of 0.1 or 0.4 mg/kg as single agent or in combination with E7449, based on body weight at 0.1 mL per 10 g. The control group was treated with oral vehicle (0.5% methyl cellulose in water) daily and intravenous vehicle (saline) once every 4 days, 3 times. E7449 or vehicle was administered first and when dosing of all animals was complete, E7389 was administered to animals receiving the combination.
Drug treatment was initiated 7 days post tumor implantation and continued for 28 days. Animals whose tumor measurement reached […] at the longest axis or whose tumor became ulcerated were euthanized prior to study termination. The study was terminated on Day 52. Statistical analysis was performed on Days 35 and 52.
Statistical analysis of the vehicle group (A) versus the drug-treated groups (B, C, D, E, and F) was performed by a one way analysis of variance (ANOVA) for tumor volume followed by Dunnett's multiple comparisons test. The analysis was performed at vehicle endpoint on Day 35 of the study. […]

[4] = HCC1806 tumors, early time points

| SMILES | phosphorylated Akt (S473 & T308) ([1]; MDA-MB-468 tumors, 48 hours) | antitumor effect (tumor growth) ([2]; E7389 0.3 mg/kg, single agent) | antitumor effect (tumor growth) ([2]; E7389 single agent, 0.1 mg/kg (dose as read from the sentence)) | tumor re-growth following treatment ([3]; E7389 0.1 mg/kg IV Q4Dx3, single agent) | tumor re-growth following treatment ([3]; E7389 0.4 mg/kg IV Q4Dx3, single agent, up to Day 52) | antitumor effect (tumor volume) ([3]; E7389 0.1 and 0.4 mg/kg IV Q4Dx3, single agent) | phosphorylated Akt (S473 & T308) [1, 4] | phosphorylated Erk (T202/Y204) [1, 4] | antitumor effect (tumor growth) ([2]; E7449 single agent) | antitumor effect (tumor volume) ([3]; E7449 100 mg/kg PO QDx28, single agent, 100 mg/kg) |
| --- | --- | --- | --- | --- | --- | --- | --- | --- | --- | --- |
| C=C1C[C@@H]2CC[C@@]34C[C@H]5OC6[C@@H](O[C@H]7CC[C@H](CC(=O)C[C@@H]8[C@@H](OC)[C@@H](C[C@H](O)CN)O[C@H]8C[C@H]8O[C@@H](CC[C@@H]1O2)C[C@@H](C)C8=C)O[C@@H]7[C@@H]6O3)[C@H]5O4 [E7389, 11, 15:18,21:24,28-triepoxy-7,9-ethano-12,15-methano-9H,15H-furo[3,2-i]furo[2′,3′:5,6]pyrano[4,3-b] [1,4]dioxacyclopentacosin-5(4H)-one, 2-[(2S)-3-amino-2-hydroxypropyl]hexacosahydro-3-methoxy-26-methyl-20,27-bis(methylene)-, (2R,3R,3aS,7R,8aS,9S,10aR,11S,12R,13aR,13bS,15S,18S,21S,24S,26R,28R,29aS)-methanesulfonate (salt)] | decreased | inhibited tumor growth to a similar degree | had no impact on the tumor growth | began re-growing within days of final E7389 dose | became tumor-free with no palpable tumors observed up to the date of study termination | Tumor regression | – | – | – | – |
| O=c1[nH]nc2c3c(cccc13)N=C(CN1Cc3ccccc3C1)N2 [E7449] | – | – | – | – | – | – | Increased | Increased | had no impact on the tumor growth | did not significantly inhibit tumor growth; also recorded: No antitumor activity |

From patent US10238630B2, “Use of eribulin and poly (ADP ribose) polymerase (PARP) inhibitors as combination therapy for the treatment of cancer” (Eisai R&D Management Co., Ltd., priority 2014, dated 2019)
